Laboratory results published in publication PMC4869729 (Chemical Science, 2015).

How the values were obtained:
[1] = test system: plasmid (pBR322) DNA; assay: Electrophoresis mobility shift assay; format: binding; details: pBR322, metal/DNAbp ratios 0.25-2.0, 37 °C, 20 h
[2] = test system: non-tumorigenic human embryonic kidney cell lines HEK-293T; assay: XTT cytotoxicity assay, HEK-293T; format: cell-based; details: read-out: IC50 HEK-293T, 72 h incubation
[3] = test system: human renal Caki-1 cancer cell lines; assay: XTT cytotoxicity assay, Caki-1; format: cell-based; details: read-out: IC50 Caki-1, 72 h incubation
[4] = test system: human renal proximal tubular cells (RPTC); assay: XTT cytotoxicity assay, RPTC; format: cell-based; details: read-out: IC50 RPTC, 72 h incubation
[5] = test system: MAPKAPK-3; assay: Immunoblotting of MAPKAPK-3 in Auranofin treated Caki-1 cells; format: cell-based, human; details: Caki-1, Western blot (Fig. S46)
[6] = test system: thioredoxin reductase; assay: Thioredoxin reductase activity in treated Caki-1 cells; format: cell-based, human
[7] = test system: TrxR in human breast MCF-7 cancer cells; details: MCF-7 cells, 4 μM; cited from earlier work
[8] = test system: TrxR in human ovarian A2780 cancer cells; details: 10 μM; cited from earlier work

| Compound | effect on electrophoretic mobility of plasmid forms [1] | IC50 [2] [nM] | IC50 [3] [µM] | IC50 [4] [µM] | expression of MAPKAPK-3 [5] | inhibition of thioredoxin reductase activity ([6]; 5 μM, 5 hour incubation) [%] | IC50 ([6]; read-out: IC50 thioredoxin reductase, after 12 hours) [nM] | inhibition of total TrxR activity [7] [%] | inhibition of total TrxR activity [8] [%] |
| --- | --- | --- | --- | --- | --- | --- | --- | --- | --- |
| N.N.[Cl][Pt][Cl] [Cisplatin] | decreased mobility of the CCC form and increased mobility of the OC form | 3270 ± 130 | 29 ± 4.11 | – | – | – | – | – | – |
| COc1ccc(C[C]2([Ti+2][C]3(Cc4ccc(OC)cc4)C=CC=C3)C=CC=C2)cc1.[Cl-].[Cl-] [Titanocene Y] | – | – | 29.4 ± 4.18 | – | – | – | – | – | – |
| [Au(Hmba)(PPh3)] [compound 4] | did not affect the mobility of the faster-running supercoiled form | 1110 ± 650 | 2.76 ± 0.35 | 3.87 ± 0.15 | – | – | – | – | – |
| CC(=O)OC[C@H]1O[C@@H]([S-])[C@H](OC(C)=O)[C@@H](OC(C)=O)[C@@H]1OC(C)=O.CCP(CC)CC.[Au+] [Auranofin] | – | – | – | – | failed to down-regulate MAKPAPK-3 | 74.1 | 610 | 18 | 30 |
